Measurements taken from paper PMC9856672, “SGC-CAMKK2-1: A Chemical Probe for CAMKK2” (Cells, 2023).

Legend:
CAMKK2 = CAMKK2 (Homo sapiens, UniProt Q96RR4); set-up: purified recombinant CAMKK2 (100 pM) was incubated in assay buffer; method as in earlier work; conditions: reported CAMKK2 inhibitors; ref 47 (Price et al.); cited from earlier work
[1] = system: p-AMPK(Thr172) in C4-2 cells; assay: Western blot of p-AMPK(Thr172) in C4-2 prostate cancer cells; format: cell-based; conditions: C4-2, 24 h, 24 h treatment, three individual experiments, read-out: IC50 for decrease of p-AMPK(Thr172) normalized to total AMPK
Experimental: C4-2 cells were plated in 6-well plates in IMEM medium containing 0.5% FBS. After 72 h, the cells were then treated with the compounds for 24 h before the media was aspirated and cells were washed twice in ice-cold PBS. Cells were lysed using RIPA buffer containing phosphatase and protease inhibitor cocktail while rotating for 30 min at 4 °C. In each lane, 30 μg/well of protein lysate was loaded into a 10% SDS-PAGE gel and run for 1 h and 30 min. Gels were then transferred overnight in a TRIS-glycine/methanol transfer buffer onto a PVDF membrane at 4 °C. Membranes were blocked, incubated with primary overnight at 4 °C, washed, incubated with secondary at room temperature for 1 h, washed, and then developed on an Azure Biosystems C-600 imager. Densitometry was performed using ImageJ. Total-AMPK was normalized to GAPDH and then p-AMPK was normalized to normalized total-AMPK. Normalized p-AMPK was used to calculate IC50 in GraphPad Prism 9.5.0. Primary antibodies used were from Cell Signaling (Danvers, MA, USA; Phospho-AMPKα (Thr172) (40H9) Rabbit mAb: Cat#: 2535; AMPKα (D5A2) Rabbit mAb Cat#: 5831), BD Bioscience (Franklin Lakes, NJ, USA; CAMKK2 mouse mAb Cat# 610544), and Sigma (St. Louis, MO, USA; GAPDH rabbit pAb: Cat# G9545). Secondary antibody (Goat Anti-Rabbit IgG (H + L)-HRP Conjugate; Cat#:1706515) was from Bio-Rad Laboratories (Hercules, CA, USA).
In this experiment, IC50 was calculated via quantifying changes in p-AMPK(Thr172) normalized to total AMPK levels.

[2] = Single dose IP pharmacokinetic study in mice; format: in vivo, CD-1 mice; conditions: mouse, 10 mg/kg IP, plasma at 0.5, 1, 3, 8 h
Experimental: CD-1 mice with weights 23–25 g were purchased from Charles River Laboratories.
The animal experiments were performed at Alliance Pharma (Malvern, PA, USA) in accordance with the guide for the care and use of laboratory animals. Alliance Pharma is accredited by the Association for Assessment and Accreditation of Laboratory Animal Care (AAALAC).
The test compounds were dissolved in DMSO and then diluted to the appropriate concentration with the vehicle. For formulation we targeted the minimal amount of DMSO that could be used in combination with a formulation composed of 0.5% HPMC/0.2% Polysorbate 80. […] Blood was collected at t = 0.5, 1, 3, and 8 h and immediately spun for 3 min, the plasma was collected, and compound levels were quantified with HPLC/MS. The raw data are available in the Supplemental Information.
With the probe molecule having favorable selectivity and potency in vitro and in a cellular context, we next wanted to determine its suitability for in vivo experiments. SGC-CAMKK2-1 (5) was progressed to a single dose mouse intraperitoneal (I.P) experiment.

Row | SMILES | pIC50 (CAMKK2) (CAMKK2) | IC50 [1] [µM] | plasma concentration / in vivo PK (in words) [2]
1 | CN(C)Cc1ccc(-c2cc3c(-c4ccc(C(N)=O)cc4)ccnc3[nH]2)cc1 [Compound 3] | 8.5 |  | 
2 | O=C(O)c1ccc(-c2ccnc(Nc3cccc(-c4ccccc4)c3)n2)cc1 [Compound 4] | 8.1 |  | 
3 | O=C(O)c1ccc2c3c1cccc3c(=O)n1c3ccccc3nc21 [STO-609, reference compound] |  | 10.7 | considerably higher plasma concentrations than SGC-CAMKK2-1
